Laboratory results from ChEMBL document CHEMBL5726992, “CGRP receptor antagonists” (2019).
pKi: −log10 of the molar value.

Biological target: Calcitonin-gene-related peptide receptor, CALCRL/RAMP1 (Homo sapiens, UniProt O60894+Q16602)
Assay: Radioligand Binding Assay: Human CGRP receptors expressed (consisting of CRLR and RAMP1) in insect Sf21 cell membrane homogenates were re-suspended in the binding buffer (10 mM HEPES, pH 7.4, 5 mM MgCl2, 0.2% BSA) to a final assay concentration of 0.6 μg protein per well. Saturation isotherms were determined by the addition of various concentrations of 3H-telcagepant (Ho et al, The Lancet, 2008, 372, 2115) (in a total reaction volume of 250 μL) for 60 min at rt. At the end of the incubation, membranes were filtered onto a unifilter, a 96-well white microplate with bonded GF/B filter pre-incubated with 0.5% PEI, with a Tomtec cell harvester and washed 5 times with distilled water. Non-specific binding (NSB) was measured in the presence of 10 nM MK-3207 hydrochloride (CAS No. 957116-20-0). Radioactivity on the filter was counted (1 min) on a microbeta counter after addition of 50 μL of scintillation fluid. For inhibition experiments, membranes were incubated with 0.5 nM 3H-telcagepant and 10 concentrations of the inhibitory compound (0.001-10 μM). IC50 values were derived from the inhibition curve and the affinity constant (Ki) values were calculated using the Cheng-Prussoff equation (Cheng et al, Biochem. Pharmacol. 1973, 22, 3099-3108).

Calcitonin-gene-related peptide receptor, CALCRL/RAMP1, sequence (O60894 whole entry): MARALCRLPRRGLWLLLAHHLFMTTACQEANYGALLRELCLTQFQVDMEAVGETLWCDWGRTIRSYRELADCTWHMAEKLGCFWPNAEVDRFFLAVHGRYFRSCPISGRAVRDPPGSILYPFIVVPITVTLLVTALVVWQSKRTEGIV
Calcitonin-gene-related peptide receptor, CALCRL/RAMP1, sequence (Q16602 whole entry): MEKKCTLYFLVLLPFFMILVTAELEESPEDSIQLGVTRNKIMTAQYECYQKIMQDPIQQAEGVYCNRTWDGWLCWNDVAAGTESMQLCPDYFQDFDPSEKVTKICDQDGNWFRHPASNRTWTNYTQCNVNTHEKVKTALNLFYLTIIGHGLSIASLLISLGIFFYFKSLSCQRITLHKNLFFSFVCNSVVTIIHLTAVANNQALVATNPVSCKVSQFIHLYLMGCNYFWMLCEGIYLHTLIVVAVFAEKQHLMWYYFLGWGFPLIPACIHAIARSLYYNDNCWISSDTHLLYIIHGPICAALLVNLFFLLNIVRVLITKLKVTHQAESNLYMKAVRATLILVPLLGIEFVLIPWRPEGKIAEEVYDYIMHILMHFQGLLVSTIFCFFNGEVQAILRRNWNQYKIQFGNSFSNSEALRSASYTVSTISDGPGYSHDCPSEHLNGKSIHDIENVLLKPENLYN

pKi: 10.60
SMILES: Cc1cc(C[C@@H](NC(=O)N2CCC(n3c(=O)[nH]c4ncccc43)CC2)C(=O)N[C@@H](CC2CCN(CCN(C)C)CC2)C(=O)N2CCN(c3ccncc3)CC2)cc2cn[nH]c12
